# Like-named read-outs stand apart in the source and are kept apart here.
# Experiments:
# [1] = test system: yeast-inflamed hind-paw pain-threshold; assay: Analgesic activity, Randall-Selitto test in rats; assay type: in vivo, female Charles River rats
# Description: (C)--Investigation of Analgesic Activity in Rats
# A control group received only the gum tragacanth vehicle.
# In order to evaluate the effect of the treatment upon pain-thresholds, pressure was applied both to the injected hind-paw and to the other non-injected hind-paw. The pain-threshold was noted as the pressure at which the rat flinched, measured using an Ugo Basile "Analgesimeter" for both hind-paws of each rat at intervals of 1 hour, 3 hours, 5 hours and 22 hours after the administration, and expressed as the percentage of the pain-threshold pressure for the injected (and thus inflamed) hind-paw as against the non-injected (and thus healthy) hind-paw.
# in vivo [2] = conditions: mouse, in vivo, po
# Description: (E)--Investigation of Acute Oral Toxicity in Mice
# Charles River (CD-1 COBS) albino mice, 20-22 g in weight, were kept for some days in an air-conditioned animal house and fed with a standard diet (sterile VAR granules). They were fasted overnight before experiment, with water ad libitum. 15 Male mice and 15 female mice were used for each experiment.
# N-Acetyl-para-aminophenol (NAPA) and N-acetyl-para-aminophenyl N'-acetyl-D,L-methionate (Compound A) were then administered to the mice, orally, as a suspension (shaken continuously with an electromagnetic agitator) in 5% gum arabic at a volume of 0.02 ml/g, either individually or in variously proportioned mixtures and at different dose levels, as shown in Table VII below.
# A control group received only the 5% gum arabic vehicle.
# [3] = Acute oral toxicity in rats; assay type: in vivo; conditions: rat, in vivo; for mortality at 144 h / mortality at 48 h / mortality at 72 h / mortality at 96 h / mortality at 120 h / mortality at 168 h / mortality at 24 h: po; for mortality at 144 h: 6 Days
# Description: (§1) (F)--Investigation of Acute Oral Toxicity in Rats
# (§2) The investigation was carried out upon groups of 10 male and 10 female albino rats (Charles River CD-1 COBS) of 80-100 g body weight. […] Before the experiment they were fasted overnight, with water ad libitum. NAPA and Compound A were then administered orally by oesophageal intubation as suspensions (continuously shaken with an electromagnetic agitator) in 1% gum arabic at a volume of 2 ml/100 g body weight, and at dose levels of 1, 2, 4 and 8 g/kg. A control group received orally, under the same experimental conditions, merely 2 ml/100 g of the suspension vehicle. The rats were then kept under observation during seven days, while their behaviour patterns were observed and the mortality recorded
# [4] = test system: albino rats (Charles River CD-1 COBS); assay: Acute oral toxicity in rats; assay type: in vivo
# Description: as §1, §2
# [5] = mouse, in vivo, po
# Description: (§3) (A)--Investigation of Serum Concentrations in Mice
# (§4) 36 Charles River COBS mice (18 males and 18 females) weighing 30 g each were deprived of food for 16 hours before the trial but were given their usual drinking water. Three groups, each containing 6 males and 6 females, received a dosage of 1 ml/100 g body weight per mouse, orally by stomach tube, of a suspension in 1% gum tragacanth of respectively:
# (§5) Group X: 500 mg/kg of N-acetyl-para-aminophenol
# (§6) A blood sample was taken by throat-slitting from one male and one female from each Group at each study time, i.e. 1/2, 1, 2, 4 and 24 hours after the oral administration.
# (§7) At times 1/2, 1, 2 and 4 hours, each serum sample was divided into three 0.1 ml trial samples for the following three determinations:
# in vivo [6] = conditions: mouse, po
# Description: as §3, §4, §5, §6, §7
# This determination was carried out by direct extraction, with no prior hydrolysis, according to an adaptation of the above-mentioned method.
# [7] = 1000 mg/kg, 1 g/kg oral, 10 F, read-out: Percentage Mortality
# [8] = 1000 mg/kg, 1 g/kg oral, 10 M, read-out: Percentage Mortality
# [9] = 1000 mg/kg, 1 g/kg oral, M & F, read-out: Percentage Mortality
# [10] = 2000 mg/kg, 2 g/kg oral, 10 F, read-out: Percentage Mortality
# [11] = 2000 mg/kg, 2 g/kg oral, 10 M, read-out: Percentage Mortality
# [12] = 2000 mg/kg, 2 g/kg oral, M & F, read-out: Percentage Mortality
# [13] = 4000 mg/kg, 4 g/kg oral, 10 F, read-out: Percentage Mortality
# [14] = 4000 mg/kg, 4 g/kg oral, 10 M, read-out: Percentage Mortality
# [15] = 4000 mg/kg, 4 g/kg oral, M & F, read-out: Percentage Mortality
# [16] = 4000 mg/kg, Percentage Mortality
# [17] = 8000 mg/kg, 8 g/kg oral, 10 F, read-out: Percentage Mortality
# [18] = 8000 mg/kg, 8 g/kg oral, 10 M, read-out: Percentage Mortality
# [19] = 8000 mg/kg, 8 g/kg oral, M & F, read-out: Percentage Mortality
# [20] = 8000 mg/kg, Percentage Mortality
compound,measurement,setting,value
"CC(=O)Nc1ccc(O)cc1 [NAPA, N-acetyl-para-aminophenol]",Percentage Pain-Threshold (injected vs non-injected paw),"[1]; 1 millimole/kg oral (NAPA 151, A 324 mg/kg), 1 hr. (3.5 hrs. from yeast)",45 ± 3.5 Percentage
same,Percentage Pain-Threshold (injected vs non-injected paw),"[1]; 1 millimole/kg oral (NAPA 151, A 324 mg/kg), 3 hrs. (5.5 hrs. from yeast)",48 ± 4.1 Percentage
same,Percentage Pain-Threshold (injected vs non-injected paw),"[1]; 1 millimole/kg oral (NAPA 151, A 324 mg/kg), 5 hrs. (7.5 hrs. from yeast)",47 ± 1.7 Percentage
same,Percentage Pain-Threshold (injected vs non-injected paw),"[1]; 1 millimole/kg oral (NAPA 151, A 324 mg/kg), 22 hrs. (24.5 hrs. from yeast)",43 ± 3.4 Percentage
same,Percentage Pain-Threshold (injected vs non-injected paw),"[1]; 2 millimoles/kg oral (NAPA 302, A 648 mg/kg), 1 hr. (3.5 hrs. from yeast)",50 ± 4.2 Percentage
same,Percentage Pain-Threshold (injected vs non-injected paw),"[1]; 2 millimoles/kg oral (NAPA 302, A 648 mg/kg), 3 hrs. (5.5 hrs. from yeast)",54 ± 4.0 Percentage
same,Percentage Pain-Threshold (injected vs non-injected paw),"[1]; 2 millimoles/kg oral (NAPA 302, A 648 mg/kg), 5 hrs. (7.5 hrs. from yeast)",53 ±3.9 Percentage
same,Percentage Pain-Threshold (injected vs non-injected paw),"[1]; 2 millimoles/kg oral (NAPA 302, A 648 mg/kg), 22 hrs. (24.5 hrs. from yeast)",54 ± 4.7 Percentage
same,P of pain-threshold (t-test versus control),"[1]; 2 millimoles/kg oral, 3 hrs.",< 0.05
same,LD50 at 24 h,in vivo [2],730 ± 65 mg/kg
same,LD50 at 168 h,in vivo [2],690 ± 65 mg/kg
same,mortality at 144 h,[3]; [7],0%
same,mortality at 48 h,[3]; [7],0%
same,mortality at 72 h,"[3]; 1000 mg/kg, 1 g/kg oral, 10 M, 3 Days, read-out: Percentage Mortality",10%
same,mortality at 96 h,"[3]; 1000 mg/kg, 1 g/kg oral, 10 M, 4 Days, read-out: Percentage Mortality",10%
same,mortality at 120 h,"[3]; 1000 mg/kg, 1 g/kg oral, 10 M, 5 Days, read-out: Percentage Mortality",10%
same,mortality at 144 h,[3]; [8],10%
same,mortality at 168 h,"[3]; 1000 mg/kg, 1 g/kg oral, 10 M, 7 Days, read-out: Percentage Mortality",10%
same,mortality at 24 h,"[3]; 1000 mg/kg, 1 g/kg oral, 10 M, 24 Hours, read-out: Percentage Mortality",10%
same,mortality at 48 h,[3]; [8],10%
same,mortality at 120 h,"[3]; 1000 mg/kg, 1 g/kg oral, M & F, 5 Days, read-out: Percentage Mortality",5%
same,mortality at 144 h,[3]; [9],5%
same,mortality at 48 h,[3]; [9],5%
same,mortality at 120 h,"[3]; 1000 mg/kg, Percentage Mortality",0%
same,mortality at 144 h,[3]; [10],0%
same,mortality at 48 h,[3]; [10],0%
same,mortality at 72 h,"[3]; 2000 mg/kg, 2 g/kg oral, 10 M, 3 Days, read-out: Percentage Mortality",10%
same,mortality at 96 h,"[3]; 2000 mg/kg, 2 g/kg oral, 10 M, 4 Days, read-out: Percentage Mortality",10%
same,mortality at 120 h,"[3]; 2000 mg/kg, 2 g/kg oral, 10 M, 5 Days, read-out: Percentage Mortality",10%
same,mortality at 144 h,[3]; [11],10%
same,mortality at 168 h,"[3]; 2000 mg/kg, 2 g/kg oral, 10 M, 7 Days, read-out: Percentage Mortality",10%
same,mortality at 24 h,"[3]; 2000 mg/kg, 2 g/kg oral, 10 M, 24 Hours, read-out: Percentage Mortality",10%
same,mortality at 48 h,[3]; [11],10%
same,mortality at 120 h,"[3]; 2000 mg/kg, 2 g/kg oral, M & F, 5 Days, read-out: Percentage Mortality",5%
same,mortality at 144 h,[3]; [12],5%
same,mortality at 48 h,[3]; [12],5%
same,mortality at 120 h,"[3]; 2000 mg/kg, Percentage Mortality",0%
same,mortality at 144 h,[3]; [13],70%
same,mortality at 168 h,"[3]; 4000 mg/kg, 4 g/kg oral, 10 F, 7 Days, read-out: Percentage Mortality",70%
same,mortality at 48 h,[3]; [13],70%
same,mortality at 72 h,"[3]; 4000 mg/kg, 4 g/kg oral, 10 M, 3 Days, read-out: Percentage Mortality",90%
same,mortality at 96 h,"[3]; 4000 mg/kg, 4 g/kg oral, 10 M, 4 Days, read-out: Percentage Mortality",90%
same,mortality at 120 h,"[3]; 4000 mg/kg, 4 g/kg oral, 10 M, 5 Days, read-out: Percentage Mortality",90%
same,mortality at 144 h,[3]; [14],90%
same,mortality at 168 h,"[3]; 4000 mg/kg, 4 g/kg oral, 10 M, 7 Days, read-out: Percentage Mortality",90%
same,mortality at 24 h,"[3]; 4000 mg/kg, 4 g/kg oral, 10 M, 24 Hours, read-out: Percentage Mortality",90%
same,mortality at 48 h,[3]; [14],90%
same,mortality at 144 h,[3]; [15],80%
same,mortality at 48 h,[3]; [15],80%
same,mortality at 24 h,[3]; [16],70%
same,mortality at 72 h,[3]; [16],70%
same,mortality at 96 h,[3]; [16],70%
same,mortality at 120 h,[3]; [16],70%
same,mortality at 168 h,[3]; [16],80%
same,mortality at 144 h,[3]; [17],100%
same,mortality at 48 h,[3]; [17],100%
same,mortality at 72 h,"[3]; 8000 mg/kg, 8 g/kg oral, 10 M, 3 Days, read-out: Percentage Mortality",100%
same,mortality at 96 h,"[3]; 8000 mg/kg, 8 g/kg oral, 10 M, 4 Days, read-out: Percentage Mortality",100%
same,mortality at 120 h,"[3]; 8000 mg/kg, 8 g/kg oral, 10 M, 5 Days, read-out: Percentage Mortality",100%
same,mortality at 144 h,[3]; [18],100%
same,mortality at 168 h,"[3]; 8000 mg/kg, 8 g/kg oral, 10 M, 7 Days, read-out: Percentage Mortality",100%
same,mortality at 24 h,"[3]; 8000 mg/kg, 8 g/kg oral, 10 M, 24 Hours, read-out: Percentage Mortality",90%
same,mortality at 48 h,[3]; [18],100%
same,mortality at 144 h,[3]; [19],100%
same,mortality at 48 h,[3]; [19],100%
same,mortality at 24 h,[3]; [20],100%
same,mortality at 72 h,[3]; [20],100%
same,mortality at 96 h,[3]; [20],100%
same,mortality at 120 h,[3]; [20],100%
same,mortality at 168 h,[3]; [20],100%
same,LD50 at 24 h,"[3]; oral, rats, Miller and Tainter method",3100 ± 500 mg/kg
same,LD50 at 168 h,"[3]; oral, rats, Miller and Tainter method, read-out: LD50 (7 days)",2850 ± 400 mg/kg
same,time of first deaths,"[4]; 8 g/kg oral, rats",eight hours after the administration at 8 g/kg dose level
same,mortality (in words),"[4]; oral, rats, 1-8 g/kg",Heavy mortality
same,Percentage Mortality,"[4]; rat, in vivo, po, 8000 mg/kg, 24 h",95 Percentage
same,"serum ""total"" or ""enzymatic"" NAPA profile",[5],slowly decreases but remains high up to 4 hours after oral administration
same,concentration at 2 h,"in vivo [6]; 500 mg/kg, Serum ""free NAPA""",97000 ng/mL
same,concentration at 4 h,"in vivo [6]; 500 mg/kg, Serum ""free NAPA""",32000 ng/mL
same,concentration at 4 h,in vivo [6]; 1073 mg/kg,32000 ng/mL

# From patent US4361703A, “Para-amino(or nitro)phenyl N-acetylaminothioalkanoates” (priority 1977, dated 1982)
